The source of these data is patent publication US20220168310A1, “INHIBITION OF ADENOVIRUS WITH FILOCICLOVIR” (Microbiotix, Inc., priority 2019, published 2022).

Structures are written as SMILES.

One data set has as its system adenovirus 37 (AdV37). Briefly: Efficacy against adenovirus 37 (data not shown).
Data set [1] can be described thus: Cytotoxicity, CellTiter-Glo cell viability assay in HFF cells. The following applies: human, human foreskin fibroblast (HFF) cell monolayers. The method, then:
Human foreskin tissue was obtained from the University of Alabama at Birmingham tissue procurement facility with approval from the Institutional Review Board. The tissue was stored at 4° C. in cell culture medium consisting of minimum essential media (MEM) with Earle's salts supplemented with 10% fetal bovine serum (FBS; HyClone, Inc., Logan, Utah) and standard concentration of L-glutamine, amphotericin B (Fungizone), and vancomycin. The tissue was then placed in a phosphate-buffered saline solution, minced, and rinsed to remove the red blood cells. Tissue fragments were then resuspended in a trypsin-EDTA solution and incubated at 37° C. to disperse the cells, which were then collected by centrifugation. Cell pellets were then resuspended in 4 ml culture medium, placed in a 25-cm^2 tissue culture flask, and incubated at 37° C. for 24 h. The culture medium was then replaced with fresh medium and condition of the cells was monitored daily until a confluent cell monolayer was formed. The HFF cells were then expanded through serial passages in standard growth medium of MEM with Earle's salts supplemented with 10% FBS, L-glutamine, penicillin, and gentamicin. Each lot of cells was confirmed to be free of mycoplasma infection and routinely passaged or used for assays at or before passage 10.
Antiviral and cytotoxicity data were obtained in a series of three to five separate experiments for each virus to provide an accurate estimate of antiviral activity and statistical data. Each assay included positive and negative control compounds as well as infected and uninfected controls to ensure the integrity of the experiment.
The CPE reduction assays were performed in monolayers of human foreskin fibroblast (HFF) cells (5000/well) in 384-well plates in assay media consisting of MEM with Earle's salts, 2% FBS and standard concentrations of L-glutamine, penicillin and gentamycin. 5000 cells were seeded in 384-well microtiter plates and incubated at 37° C. in a humidified 5% CO2 incubator for 24 hours to allow for formation of confluent monolayers.
Cell monolayers were infected at a multiplicity of infection (MOI) of approximately 0.005 PFU/cell with virus strains including AdV5. […] Cytopathology was determined by the addition of CellTiter-Glo® reagent (Promega, Madison, Wis.). Concentrations of antiviral test compounds sufficient to reduce CPE by 50% (EC50) were interpolated from the experimental data using standard methods in Microsoft® Excel.

For the molecule `Nc1nc2c(ncn2/C=C2/CC2(CO)CO)c(=O)[nH]1` [FCV, 2-amino-9-{(Z)-[2,2-bis(hydroxymethyl)cyclopropylidene]methyl}-3,9-dihydro-6H-purin-6-one], in the data set on adenovirus 37 (AdV37), the “treat or prevent infection” value was “effective”. Further, the CC50 in data set [1] (CC50, AdV6 line of Table 2, unit inferred) is above 100 µM; in data set [1] (CC50, AdV7 line of Table 2, unit inferred) it was above 150 µM; in data set [1] (CC50, AdV8 line of Table 2, unit inferred) it was above 150 µM; in data set [1] (CC50, HFF cells, run with AdV5 assay, average and SD from five independent experiments), 95 ± 10.6 µM; in data set [1] (mammalian cytotoxicity (CC50), summary statement, 'preferably') it was 100 to 150 µM.
